# US10597390B2, “Indoles for use in influenza virus infection” (Janssen Sciences Ireland UC, priority 2014, dated 2020)
# What was measured:
# [1] = test system: influenza virus A/Taiwan/1/86 (H1N1); experiment: organism not typed; format: cell-based; conditions: MDCK, 72 h, CPE in MDCK cells, three days post-virus exposure, ATPlite
# in vitro = conditions: dog, TOX MDCK CC50
Compound,melting point,IC50 [1],CC50 at 3 days (in vitro)
NC(=O)c1cc(F)c(N[C@@H]2CCC[C@H](NC(=O)N3CCCC3)C2)nc1-c1c[nH]c2c(F)cc(F)cc12 (racemic) [Compound 23],249.2 °C,140 nM,> 25000 nM
Nc1cc(C(=O)N[C@@H]2CCC[C@H](Nc3nc(-c4c[nH]c5c(F)cc(F)cc45)ncc3F)C2)n[nH]1 [Compound 131],245.7 °C,4 nM,19400 nM
Cc1c[nH]c(C(=O)N[C@@H]2CCC[C@H](Nc3nc(-c4c[nH]c5c(F)cc(F)cc45)ncc3F)C2)n1 [Compound 135],281.9 °C,2 nM,8400 nM
"C=CCC(C)(C)C(CC(=O)O)Nc1nc(-c2c[nH]c3c(F)cc(F)cc23)c(C#N)cc1F (stereo not drawn) [Compound 241, 3-((5-cyano-6-(5,7-difluoro-1H-indol-3-yl)-3-fluoropyridin-2-yl)amino)-4,4-dimethylhept-6-enoic Acid]",> 260 °C,12 nM,50 nM
Nc1cc(C(=O)N[C@@H]2CCC[C@H](Nc3nc(-c4c[nH]c5c(F)cc(Cl)cc45)ncc3F)C2)ncn1 [Compound 66],152.4 °C,3 nM,5200 nM
Cn1cc(C(=O)N[C@@H]2CCC[C@H](Nc3nc(-c4c[nH]c5c(F)cc(Cl)cc45)ncc3F)C2)nn1 [Compound 67],283 °C,12 nM,840 nM
O=C(N[C@@H]1CCC[C@H](Nc2nc(-c3c[nH]c4c(F)cc(F)cc34)ncc2F)C1)C1CCCN1 (stereo partly drawn) [Compound 139],208.1 °C,2000 nM,11500 nM
O=C(O)c1cccnc1C(=O)N[C@@H]1CCC[C@H](Nc2nc(-c3c[nH]c4c(F)cc(F)cc34)ncc2F)C1 [Compound 225],265.2 °C,9 nM,> 5000 nM
CN(C)c1ccnc(C(=O)N[C@@H]2CCC[C@H](Nc3nc(-c4c[nH]c5c(F)cc(Cl)cc45)ncc3F)C2)c1 [Compound 56],281.8 °C,6 nM,10700 nM
O=C(N[C@@H]1CCC[C@H](Nc2nc(-c3c[nH]c4c(F)cc(F)cc34)ncc2F)C1)c1ccc2ncccc2n1 [Compound 100],84.6 °C,54 nM,12400 nM
Cn1nccc1C(=O)N[C@@H]1CCC[C@H](Nc2nc(-c3c[nH]c4c(F)cc(Cl)cc34)ncc2F)C1 [Compound 61],> 300 °C,1 nM,> 25000 nM
"O=C(O)c1ccccc1C(=O)N[C@@H]1CCC[C@H](Nc2nc(-c3c[nH]c4c(F)cc(F)cc34)ncc2F)C1 (relative stereo) [Compound 224, 2-(((1R*,3S*)-3-((2-(5,7-difluoro-1H-indol-3-yl)-5-fluoropyrimidin-4-yl)amino)cyclohexyl)carbamoyl)benzoic Acid]",201.5 °C,160 nM,> 5000 nM
Nc1nccc(C(=O)N[C@@H]2CCC[C@H](Nc3nc(-c4c[nH]c5c(F)cc(F)cc45)ncc3F)C2)n1 [Compound 123],235 °C,11 nM,> 25000 nM
O=C(N[C@@H]1CCC[C@H](Nc2nc(-c3c[nH]c4c(F)cc(F)cc34)ncc2F)C1)c1c[nH]cn1 [Compound 142],219.9 °C,2 nM,10000 nM
N#Cc1cc(F)c2[nH]cc(-c3ncc(F)c(N[C@H]4C5CCC(CC5)[C@@H]4C(=O)O)n3)c2c1 [Compound 171],211.6 °C,6 nM,700 nM
O=C(N[C@@H]1CCC[C@H](Nc2nc(-c3c[nH]c4c(F)cc(F)cc34)ncc2F)C1)c1ncccn1 [Compound 108],> 300 °C,6 nM,> 24000 nM
CC(C)(c1nccs1)C(CC(=O)O)Nc1nc(-c2c[nH]c3c(F)cc(F)cc23)c(C#N)cc1F (stereo not drawn) [Compound 232],223.6 °C,3 nM,300 nM
"CC(C)(c1ccccn1)C(CC(=O)O)Nc1nc(-c2c[nH]c3c(F)cc(F)cc23)c(C#N)cc1F (stereo not drawn) [Compound 237, 3-((5-cyano-6-(5,7-difluoro-1H-indol-3-yl)-3-fluoropyridin-2-yl)amino)-4-methyl-4-(pyridin-2-yl)pentanoic Acid]",230.8 °C,3 nM,400 nM
Cc1cc(F)c2[nH]cc(-c3ncc(F)c(N[C@@H]4CCC[C@H](NC(=O)c5ccccn5)C4)n3)c2c1 (racemic) [Compound 21],208 °C,4 nM,4800 nM
Cc1nc(C(=O)N[C@@H]2CCC[C@H](Nc3nc(-c4c[nH]c5c(F)cc(Cl)cc45)ncc3F)C2)no1 [Compound 50],276.7 °C,24 nM,> 25000 nM
Cn1cnnc1C(=O)N[C@@H]1CCC[C@H](Nc2nc(-c3c[nH]c4c(F)cc(F)cc34)ncc2F)C1 [Compound 143],169.8 °C,39 nM,9900 nM
